The conditions of data set [1]: 318.15 K; 101.33 kPa; Liquid.
Data set [2] can be described thus: refractive index (Na D-line) (dimensionless). The settings on record: 318.15 K; 101.33 kPa; Liquid; Standard Abbe refractometry.

Numbers after ± are expanded uncertainties.

Broadly, the mass density is mass per unit of volume. The term refractive index denotes a measure of how strongly the sample bends light.

For `CC(C)(C)O` [2-methylpropan-2-ol], in data set [1], the mass density turned out to be 759.87 ± 0.52 kg/m3. In data set [2], the refractive index was found to be 1.3741 ± 0.0007.

The values above are taken from the NIST ThermoML archive (doi:10.1021/je034290l).
